Measured values reported in patent US6713265B1 (Synaptic Pharmaceutical Corporation, priority 1999, dated 2004).

How the values were obtained:
5HT1Dα = 5HT1Dα (Homo sapiens, UniProt P28221); assay: Binding at cloned human 5HT1Dα receptor
Description: (§1) The cell line for the 5HT1Dα receptor, designated as Ltk-8-30-84, was deposited on Apr. […] The cell for the 5HT1Dβ receptor, designated as Ltk-11, was deposited on Apr. […] Membrane preparations comprising these receptors were prepared as described below, and suspended in 50 mM Tris-HCl buffer (pH 7.4 at 37° C.) containing 10 mM MgCl2, 0.2 mM EDTA, 10 μM pargyline, and 0.1% ascorbate. The binding of compounds was determined in competition binding assays by incubation for 30 minutes at 37° C. in the presence of 5 nM [^3H]serotonin. Nonspecific binding was determined in the presence of 10 μM serotonin.

food intake = assay: Food intake in food-deprived rats; format: in vivo, rat; settings: 30 mg/kg i.p., after 24h food deprivation
Description: After receipt, the animals are individually housed for the duration of the study and allowed free access to normal food together with tap water. The animals are maintained in a room with a 12 h light/dark cycle (8:00 a.m. to 8:00 p.m. light) at 24° C. and monitored humidity. After placement into individual cages the rats undergo a 4 day equilibration period, during which they are habituated to their new environment and to eating a powdered or pellet diet NAFAG, Gossau, Switzerland).
At the end of the equilibration period, food is removed from the animals for 24 hours starting at 8:00 a.m. At the end of the fasting period compound or vehicle may be administered to the animals orally or by injection intraperitoneally or intravenously. After 10-60 min. food is returned to the animals and their food intake is monitored at various time periods during the following 24 hour period. The food intake of animals treated with test compound may be calculated as a percentage of the food intake of control animals (i.e., animals treated with vehicle). Alternatively, food intake for each group of animals subjected to a particular experimental condition may be expressed as the mean±S.E.M.
Measurements were performed two hours after administration of the test compound.

α2b = molecular target: T1, α2b (Homo sapiens, UniProt P18089); assay: Binding at cloned human α2b adrenergic receptor
T1 sequence (P18089 1-450): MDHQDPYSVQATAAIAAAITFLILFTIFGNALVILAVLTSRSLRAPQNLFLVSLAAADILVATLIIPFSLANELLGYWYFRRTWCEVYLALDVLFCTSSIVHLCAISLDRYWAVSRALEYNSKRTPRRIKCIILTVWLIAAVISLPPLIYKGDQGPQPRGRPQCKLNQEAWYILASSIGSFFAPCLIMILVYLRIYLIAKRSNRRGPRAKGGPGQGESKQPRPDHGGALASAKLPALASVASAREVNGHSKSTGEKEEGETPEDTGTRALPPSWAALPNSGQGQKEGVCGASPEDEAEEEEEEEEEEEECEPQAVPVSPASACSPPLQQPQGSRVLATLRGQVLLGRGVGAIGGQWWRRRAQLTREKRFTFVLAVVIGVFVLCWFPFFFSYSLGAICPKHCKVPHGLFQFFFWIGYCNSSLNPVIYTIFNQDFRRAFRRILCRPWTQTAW

human Y5 receptor [1] = molecular target: T2, human Y5 receptor (Homo sapiens, UniProt Q15761); assay: Radioligand binding to membranes of cells expressing cloned human Y5 receptor; set-up: Ki Values, Human Y5; apparent Kd; pKd; The isolated clone (CG-19) turned out to contain a full length cDNA; The longest open reading frame encodes a 455 amino acid protein; settings: read-out: Binding Affinity Ki vs. ^125I-PYY, Human Receptor Y5; Table 14; stably transfected LM(tk-) cells
T2 sequence (Q15761 1-445): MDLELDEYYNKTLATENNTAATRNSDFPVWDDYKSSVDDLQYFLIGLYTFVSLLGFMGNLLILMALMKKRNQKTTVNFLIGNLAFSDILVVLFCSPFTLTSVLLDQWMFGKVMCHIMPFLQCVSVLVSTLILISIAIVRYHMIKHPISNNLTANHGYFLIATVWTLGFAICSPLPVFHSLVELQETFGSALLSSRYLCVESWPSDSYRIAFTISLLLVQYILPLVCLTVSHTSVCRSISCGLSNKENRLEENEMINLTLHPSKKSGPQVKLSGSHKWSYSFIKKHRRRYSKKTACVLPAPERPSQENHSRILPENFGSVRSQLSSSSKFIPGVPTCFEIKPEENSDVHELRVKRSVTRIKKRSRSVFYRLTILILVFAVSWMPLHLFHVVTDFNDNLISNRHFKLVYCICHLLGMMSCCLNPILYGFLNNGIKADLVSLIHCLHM

human Y5 receptor [2] = molecular target: T2, human Y5 receptor; assay: Radioimmunoassay of cAMP, cells stably expressing human Y5 receptor; format: cell-based; set-up: Ki Values, Human Y5; apparent Kd; pKd; The isolated clone (CG-19) turned out to contain a full length cDNA; The longest open reading frame encodes a 455 amino acid protein; settings: block of NPY-induced inhibition of cAMP accumulation, forskolin-stimulated LM(tk-) cells, human Y5
Description: LM(tk-) cells stably transfected with the human Y5 receptor were routinely converted from an adherent monolayer to a viable suspension. […] The cell suspension was maintained in a shaking incubator at 37° C., 5% CO2 for 24 hours. […] Alternatively, cells may be returned to adherent cell culture in complete DMEM by distribution into 96-well microtiter plates coated with poly-D-lysine (0.01 mg/ml) followed by incubation at 37° C., 5% CO2 for 24 hours.
The maximum inhibition of cAMP accumulation (Emax) and the concentration producing a half-maximal effect (EC50) were determined by nonlinear regression analysis according to a 4 parameter logistic equation.
The ability of the compounds to antagonize the Y-type receptors is reported as the Kb. […] The results shown are representative of at least three independent experiments.

α2a = molecular target: T3, α2a (Homo sapiens, UniProt P08913); assay: Binding at cloned human α2a adrenergic receptor
T3 sequence (P08913 1-465): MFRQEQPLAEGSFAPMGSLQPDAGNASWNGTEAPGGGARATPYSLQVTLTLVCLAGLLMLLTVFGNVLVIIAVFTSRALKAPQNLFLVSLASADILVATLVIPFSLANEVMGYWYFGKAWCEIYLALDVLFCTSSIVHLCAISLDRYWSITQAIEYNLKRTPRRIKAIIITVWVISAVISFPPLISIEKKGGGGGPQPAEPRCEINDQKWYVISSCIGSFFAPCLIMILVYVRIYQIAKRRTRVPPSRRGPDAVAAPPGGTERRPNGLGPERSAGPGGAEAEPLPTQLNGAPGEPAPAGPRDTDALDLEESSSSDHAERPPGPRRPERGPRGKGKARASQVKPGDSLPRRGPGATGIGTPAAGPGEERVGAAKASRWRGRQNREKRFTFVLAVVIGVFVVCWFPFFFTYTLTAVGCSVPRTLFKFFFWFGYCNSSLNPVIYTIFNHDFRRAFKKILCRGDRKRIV

5HT2 = molecular target: T4, 5HT2 (Homo sapiens, UniProt P28223); assay: Binding at cloned human 5HT2 receptor
T4 construct: expressed in transfected cells; host or cells: COS-7 (DEAE-dextran); the same paragraph also names the deposited cell line L-NGC-5HT2 (ATCC CRL 10287)
T4 sequence (P28223 whole entry): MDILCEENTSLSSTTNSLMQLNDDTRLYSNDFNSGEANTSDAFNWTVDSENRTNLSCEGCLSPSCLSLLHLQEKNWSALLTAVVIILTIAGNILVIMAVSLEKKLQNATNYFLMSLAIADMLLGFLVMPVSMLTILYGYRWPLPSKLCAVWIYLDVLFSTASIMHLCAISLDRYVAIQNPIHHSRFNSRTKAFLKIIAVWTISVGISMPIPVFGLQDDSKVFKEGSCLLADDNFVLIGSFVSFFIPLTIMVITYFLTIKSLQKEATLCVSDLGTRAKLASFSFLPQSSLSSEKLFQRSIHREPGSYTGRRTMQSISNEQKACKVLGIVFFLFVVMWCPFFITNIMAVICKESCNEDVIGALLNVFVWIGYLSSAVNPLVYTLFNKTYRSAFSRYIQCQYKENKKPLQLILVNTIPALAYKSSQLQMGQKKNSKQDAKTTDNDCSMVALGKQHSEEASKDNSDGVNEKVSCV
Description: Human 5HT2 Receptor: The coding sequence of the human 5HT2 receptor was obtained from a human brain cortex cDNA library, and cloned into the cloning site of pcEXV-3 eukaryotic expression vector. […] Nonspecific binding was defined by the addition of 10 μM mianserin.

D3 = molecular target: T5, D3 (Homo sapiens, UniProt P35462); assay: Binding at cloned human dopamine D3 receptor
T5 construct: expressed in transfected cells; host or cells: COS-7
T5 sequence (P35462 whole entry): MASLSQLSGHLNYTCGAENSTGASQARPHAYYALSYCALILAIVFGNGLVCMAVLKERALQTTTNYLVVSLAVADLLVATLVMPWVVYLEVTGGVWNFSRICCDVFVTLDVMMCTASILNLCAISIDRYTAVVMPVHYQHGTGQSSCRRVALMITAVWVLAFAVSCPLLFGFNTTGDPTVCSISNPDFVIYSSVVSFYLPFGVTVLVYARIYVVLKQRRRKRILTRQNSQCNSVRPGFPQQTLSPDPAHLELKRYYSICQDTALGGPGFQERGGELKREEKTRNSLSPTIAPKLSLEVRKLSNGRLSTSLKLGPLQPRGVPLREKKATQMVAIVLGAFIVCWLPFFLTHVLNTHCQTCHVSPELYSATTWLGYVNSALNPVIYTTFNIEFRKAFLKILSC

5HT1a = 5HT1a (Homo sapiens, UniProt P08908); assay: Binding at cloned human 5HT1a receptor
Chain of 5HT1a (P08908 whole entry): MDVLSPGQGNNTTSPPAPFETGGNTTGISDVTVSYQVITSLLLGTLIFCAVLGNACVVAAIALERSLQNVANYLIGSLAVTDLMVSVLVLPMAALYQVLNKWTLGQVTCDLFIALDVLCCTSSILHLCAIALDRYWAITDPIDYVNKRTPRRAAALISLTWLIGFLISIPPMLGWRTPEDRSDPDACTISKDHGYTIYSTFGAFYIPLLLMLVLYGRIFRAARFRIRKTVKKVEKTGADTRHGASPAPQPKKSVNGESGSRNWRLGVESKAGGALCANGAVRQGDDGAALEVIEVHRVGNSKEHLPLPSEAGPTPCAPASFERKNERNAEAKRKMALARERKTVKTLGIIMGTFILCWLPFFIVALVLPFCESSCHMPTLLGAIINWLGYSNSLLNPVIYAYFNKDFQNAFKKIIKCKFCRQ

human Y4 receptor = molecular target: T6, human Y4 receptor (Homo sapiens, UniProt P50391); assay: ^125I-PYY binding to membranes, cloned human Y4 receptor; settings: read-out: Binding Affinity Ki vs. ^125I-PYY, Human Receptor Y4; Table 14; stably transfected LM(tk-) cells
T6 construct: expressed in transfected cells; host or cells: COS-7 (transient)
T6 sequence (P50391 whole entry): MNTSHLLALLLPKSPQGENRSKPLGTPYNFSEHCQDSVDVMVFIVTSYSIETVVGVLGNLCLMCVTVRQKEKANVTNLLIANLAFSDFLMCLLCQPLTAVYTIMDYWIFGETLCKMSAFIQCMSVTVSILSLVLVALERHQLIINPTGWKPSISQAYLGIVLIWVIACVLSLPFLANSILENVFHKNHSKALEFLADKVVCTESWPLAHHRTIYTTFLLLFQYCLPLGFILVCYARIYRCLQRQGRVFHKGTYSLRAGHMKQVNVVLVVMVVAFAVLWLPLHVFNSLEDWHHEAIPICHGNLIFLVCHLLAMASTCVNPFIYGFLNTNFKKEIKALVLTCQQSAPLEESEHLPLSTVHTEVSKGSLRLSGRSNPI

5HT1Dβ = molecular target: T7, 5HT1Dβ (Homo sapiens, UniProt P28222); assay: Binding at cloned human 5HT1Dβ receptor
T7 construct: expressed in transfected cells; host or cells: LM(tk-), line Ltk-11 (ATCC CRL 10422)
T7 sequence (P28222 whole entry): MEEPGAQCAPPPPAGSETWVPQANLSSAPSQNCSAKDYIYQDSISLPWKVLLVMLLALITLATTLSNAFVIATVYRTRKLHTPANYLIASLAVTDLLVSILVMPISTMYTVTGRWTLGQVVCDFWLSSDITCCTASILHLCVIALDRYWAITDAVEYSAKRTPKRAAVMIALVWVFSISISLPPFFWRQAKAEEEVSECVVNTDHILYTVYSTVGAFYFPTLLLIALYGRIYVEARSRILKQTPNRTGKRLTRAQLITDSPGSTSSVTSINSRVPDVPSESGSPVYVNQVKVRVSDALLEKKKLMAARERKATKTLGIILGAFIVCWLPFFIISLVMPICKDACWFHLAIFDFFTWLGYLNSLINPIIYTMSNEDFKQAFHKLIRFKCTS
Description: as §1

Chain of 5HT1Dα (P28221 whole entry): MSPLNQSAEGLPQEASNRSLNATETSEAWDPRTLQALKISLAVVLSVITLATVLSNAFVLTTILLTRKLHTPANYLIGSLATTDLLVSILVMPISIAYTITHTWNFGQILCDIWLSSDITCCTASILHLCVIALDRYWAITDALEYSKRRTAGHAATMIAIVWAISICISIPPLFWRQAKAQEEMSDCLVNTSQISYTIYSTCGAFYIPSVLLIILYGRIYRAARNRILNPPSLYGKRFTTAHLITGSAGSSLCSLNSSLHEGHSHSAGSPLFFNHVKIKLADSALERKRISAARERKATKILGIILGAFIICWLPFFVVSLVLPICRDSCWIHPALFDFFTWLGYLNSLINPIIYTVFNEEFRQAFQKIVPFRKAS

SMILES | pKi 5HT1Dα (5HT1Dα) | Two-hour food intake of food-deprived rats, percentage of intake compared to control rats, Mean (food intake) [%] | pKi α2b (α2b) | Ki (human Y5 receptor [1]) [nM] | Kb (human Y5 receptor [2]) [nM] | pKi α2a (α2a) | pKi 5HT2 (5HT2) | pKi D3 (D3) | pKi 5HT1a (5HT1a) | Ki (human Y4 receptor) [nM] | pKi 5HT1Dβ (5HT1Dβ)
Cl.O=S(=O)(NC[C@H]1CC[C@H](CNCC2CCc3ccccc3C2)CC1)c1cccc2ccccc12 (mixture of isomers) [Compound 19] | 6.04 | 36 | 6.58 | 11 | 23 | 6.74 | 6.55 | 6.69 | 5.54 | 11700 | –
Cl.O=[N+]([O-])c1ccccc1S(=O)(=O)NC[C@H]1CC[C@H](CNCC2CCc3ccccc3C2)CC1 (mixture of isomers) [Compound 20] | 5.94 | 35 | 6.96 | 8.3 | 26 | 7.31 | 5.93 | 6.35 | – | 20400 | 5.37
Cl.Cl.Nc1ccccc1S(=O)(=O)NC[C@H]1CC[C@H](CNCC2CCc3ccccc3C2)CC1 (mixture of isomers) [Compound 22] | 5.98 | 55 | 6.43 | 11 | 3 | 7.05 | 5.99 | – | 6.56 | 27500 | 5.41
